A short description of this data set: Particle size of the drug substances. Format: physicochemical.

Turning to `CC(=O)O[C@H]1CC[C@@]2(C)C(=CC[C@@H]3[C@@H]2CC[C@]2(C)C(c4cccnc4)=CC[C@@H]32)C1` [Abiraterone acetate], the “d50 particle size of drug substance” value is given as 4-5 μm.
As to `Cc1ccc(S(=O)(=O)O)cc1.NC(=O)c1cccc2cn(-c3ccc([C@@H]4CCCNC4)cc3)nc12` [niraparib tosylate monohydrate, 2-[4-[(3S)-piperidin-3-yl]phenyl]-2H-indazole-7-carboxamide tosylate monohydrate], the “d50 particle size of drug substance” value is on record as “around 50 μm”.

Source of the values: US20230226081A1, “PHARMACEUTICAL FORMULATIONS OF ABIRATERONE ACETATE AND NIRAPARIB” (Janssen Pharmaceutica NV, priority 2020, published 2023).
